Source: ChEMBL document CHEMBL3217422, “Design of membrane targeting tobramycin-based cationic amphiphiles with reduced hemolytic activity” (Medchemcomm, 2013)
In brackets after ≈: the same amount, converted by molar mass.

Tests used:
[1] = Induction of hemolysis in rat RBC assessed as hemoglobin release at 64 ug/ml after 1 hr by microplate reader analysis; type: cell-based, Erythrocyte; settings: red blood cells, read-out: Activity
Shigella sonnei [2] = experiment: Antibacterial activity against O-antigen positive Shigella sonnei clinical isolate 6831 assessed as growth inhibition after 24 hrs by double dilution method; type: functional; settings: isolate 6831, 24 h
[3] = Antibacterial activity against Streptococcus pyogenes serotype M12 strain MGAS9429 assessed as growth inhibition after 24 hrs by double dilution method; type: functional; settings: MGAS9429, 24 h
Staphylococcus aureus [4] = experiment: Antibacterial activity against Staphylococcus aureus ATCC 9144 assessed as growth inhibition after 24 hrs by double dilution method; type: functional; settings: ATCC 9144, 24 h
[5] = tested on: Staphylococcus epidermidis; experiment: Antibacterial activity against Staphylococcus epidermidis ATCC 35984 assessed as growth inhibition after 24 hrs by double dilution method; type: functional; settings: ATCC 35984, 24 h
Staphylococcus aureus [6] = experiment: Antibacterial activity against Methicillin-resistant Staphylococcus aureus assessed as growth inhibition after 24 hrs by double dilution method; type: functional
Streptococcus mutans [7] = experiment: Antibacterial activity against Streptococcus mutans UA159 assessed as growth inhibition after 24 hrs by double dilution method; type: functional; settings: UA159, 24 h
[8] = tested on: Staphylococcus epidermidis; experiment: Antibacterial activity against Staphylococcus epidermidis ATCC 12228 assessed as growth inhibition after 24 hrs by double dilution method; type: functional; settings: ATCC 12228, 24 h
Pseudomonas aeruginosa = experiment: Antibacterial activity against Pseudomonas aeruginosa ATCC 33347 assessed as growth inhibition after 24 hrs by double dilution method; type: functional; settings: ATCC 33347, 24 h
Shigella sonnei [9] = experiment: Antibacterial activity against O-antigen negative Shigella sonnei clinical isolate 6831 assessed as growth inhibition after 24 hrs by double dilution method; type: functional; settings: isolate 6831, 24 h
Enterococcus faecalis = experiment: Antibacterial activity against Enterococcus faecalis ATCC 29212 assessed as growth inhibition after 24 hrs by double dilution method; type: functional; settings: ATCC 29212, 24 h
Enterococcus = experiment: Antibacterial activity against vancomycin-resistant Enterococcus assessed as growth inhibition after 24 hrs by double dilution method; type: functional
[10] = Induction of hemolysis in rat RBC assessed as hemoglobin release at 128 ug/ml after 1 hr by microplate reader analysis; type: cell-based, Erythrocyte; settings: red blood cells, read-out: Activity
Streptococcus mutans [11] = experiment: Antibacterial activity against Streptococcus mutans UA159 assessed as biofilm growth inhibition after 24 hrs by double dilution method; type: functional
[12] = tested on: Staphylococcus epidermidis; experiment: Antibacterial activity against Staphylococcus epidermidis ATCC 35984 assessed as biofilm growth inhibition after 24 hrs by double dilution method; type: functional
[13] = tested on: Streptococcus pyogenes serotype M12; experiment: Ratio of tobramycin MIC to compound MIC against Streptococcus pyogenes serotype M12 strain MGAS9429 after 24 hrs by double dilution method; type: functional
[14] = Induction of hemolysis in rat RBC assessed as hemoglobin release at 32 ug/ml after 1 hr by microplate reader analysis; type: cell-based, Erythrocyte; settings: red blood cells, read-out: Activity

| Structure (SMILES) | hemolysis at 1 h, 64 ug/ml [1] [%] | MIC (Shigella sonnei [2]) [µg/mL] | MIC [3] [µg/mL] | MIC (Staphylococcus aureus [4]) [µg/mL] | MIC [5] [µg/mL] | MIC (Staphylococcus aureus [6]) [µg/mL] | MIC (Streptococcus mutans [7]) [µg/mL] | MIC [8] [µg/mL] | MIC (Pseudomonas aeruginosa) [µg/mL] | MIC (Shigella sonnei [9]) [µg/mL] | MIC (Enterococcus faecalis) [µg/mL] | MIC (Enterococcus) [µg/mL] | hemolysis at 1 h, 128 ug/ml [10] [%] | MBIC (Streptococcus mutans [11]) [µg/mL] | MBIC [12] [µg/mL] | Ratio [13] | hemolysis at 1 h, 32 ug/ml [14] [%] |
| --- | --- | --- | --- | --- | --- | --- | --- | --- | --- | --- | --- | --- | --- | --- | --- | --- | --- |
| CCCCCCCCCCCCCCCCS(=O)(=O)C[C@H]1O[C@H](O[C@@H]2[C@@H](O)[C@H](O[C@H]3O[C@H](CN)[C@@H](O)C[C@H]3N)[C@@H](N)C[C@H]2N)[C@H](O)[C@@H](N)[C@@H]1O | 37.9 | 32 (≈ 43.2 µM) | 8 (≈ 10.8 µM) | 8 (≈ 10.8 µM) | 16 (≈ 21.6 µM) | 32 (≈ 43.2 µM) | 8 (≈ 10.8 µM) | 16 (≈ 21.6 µM) | > 128 | 128 (≈ 173 µM) | 64 (≈ 86.5 µM) | 32 (≈ 43.2 µM) | – | – | – | – | – |
| CCCCCCCCCCCCC(=O)NC[C@H]1O[C@H](O[C@@H]2[C@@H](O)[C@H](O[C@H]3O[C@H](CN)[C@@H](O)C[C@H]3N)[C@@H](N)C[C@H]2N)[C@H](O)[C@@H](N)[C@@H]1O | 0 | 128 (≈ 193 µM) | 16 (≈ 24.1 µM) | 16 (≈ 24.1 µM) | 8 (≈ 12.1 µM) | 128 (≈ 193 µM) | 4 (≈ 6.03 µM) | 8 (≈ 12.1 µM) | 32 (≈ 48.3 µM) | 128 (≈ 193 µM) | 128 (≈ 193 µM) | 64 (≈ 96.5 µM) | 10.2 | 8 | 8 | – | – |
| CCCCCCCCCCCCCCCCSC[C@H]1O[C@H](O[C@@H]2[C@@H](O)[C@H](O[C@H]3O[C@H](CN)[C@@H](O)C[C@H]3N)[C@@H](N)C[C@H]2N)[C@H](O)[C@@H](N)[C@@H]1O | 37.9 | 32 (≈ 45.2 µM) | 4 (≈ 5.65 µM) | 16 (≈ 22.6 µM) | 8 (≈ 11.3 µM) | 64 (≈ 90.4 µM) | 4 (≈ 5.65 µM) | 4 (≈ 5.65 µM) | > 128 | 64 (≈ 90.4 µM) | 128 (≈ 181 µM) | 64 (≈ 90.4 µM) | – | – | – | – | – |
| CCCCCCCCCCCCCCC(=O)NC[C@H]1O[C@H](O[C@@H]2[C@@H](O)[C@H](O[C@H]3O[C@H](CN)[C@@H](O)C[C@H]3N)[C@@H](N)C[C@H]2N)[C@H](O)[C@@H](N)[C@@H]1O | 74.4 | 16 (≈ 23.2 µM) | 4 (≈ 5.79 µM) | 8 (≈ 11.6 µM) | 4 (≈ 5.79 µM) | 32 (≈ 46.3 µM) | 4 (≈ 5.79 µM) | 4 (≈ 5.79 µM) | 128 (≈ 185 µM) | 32 (≈ 46.3 µM) | 64 (≈ 92.6 µM) | 32 (≈ 46.3 µM) | – | 4 | 8 | 16 | 23 |
| CCCCCCCCCCCCCCc1cn(C[C@H]2O[C@H](O[C@@H]3[C@@H](O)[C@H](O[C@H]4O[C@H](CN)[C@@H](O)C[C@H]4N)[C@@H](N)C[C@H]3N)[C@H](O)[C@@H](N)[C@@H]2O)nn1 | 74.4 | 32 (≈ 44.8 µM) | 4 (≈ 5.59 µM) | 8 (≈ 11.2 µM) | 8 (≈ 11.2 µM) | 64 (≈ 89.5 µM) | 4 (≈ 5.59 µM) | 4 (≈ 5.59 µM) | 128 (≈ 179 µM) | 32 (≈ 44.8 µM) | 128 (≈ 179 µM) | 32 (≈ 44.8 µM) | – | 4 | 16 | 16 | 23 |
| CCCCCCCCCCCCCCCCc1cn(C[C@H]2O[C@H](O[C@@H]3[C@@H](O)[C@H](O[C@H]4O[C@H](CN)[C@@H](O)C[C@H]4N)[C@@H](N)C[C@H]3N)[C@H](O)[C@@H](N)[C@@H]2O)nn1 | 37.9 | 128 (≈ 172 µM) | 16 (≈ 21.5 µM) | 16 (≈ 21.5 µM) | 8 (≈ 10.8 µM) | 32 (≈ 43.1 µM) | 8 (≈ 10.8 µM) | 4 (≈ 5.38 µM) | > 128 | 64 (≈ 86.1 µM) | 128 (≈ 172 µM) | 16 (≈ 21.5 µM) | – | – | – | – | – |
| CCCCCCCCCCCCCCS(=O)(=O)C[C@H]1O[C@H](O[C@@H]2[C@@H](O)[C@H](O[C@H]3O[C@H](CN)[C@@H](O)C[C@H]3N)[C@@H](N)C[C@H]2N)[C@H](O)[C@@H](N)[C@@H]1O | 74.4 | 32 (≈ 44.9 µM) | 4 (≈ 5.62 µM) | 16 (≈ 22.5 µM) | 16 (≈ 22.5 µM) | 64 (≈ 89.9 µM) | 4 (≈ 5.62 µM) | 16 (≈ 22.5 µM) | 128 (≈ 180 µM) | 64 (≈ 89.9 µM) | 64 (≈ 89.9 µM) | 32 (≈ 44.9 µM) | – | 4 | 8 | – | 23 |
| CCCCCCCCCCCCCCCCC(=O)NC[C@H]1O[C@H](O[C@@H]2[C@@H](O)[C@H](O[C@H]3O[C@H](CN)[C@@H](O)C[C@H]3N)[C@@H](N)C[C@H]2N)[C@H](O)[C@@H](N)[C@@H]1O | 37.9 | 32 (≈ 44.5 µM) | 8 (≈ 11.1 µM) | 8 (≈ 11.1 µM) | 4 (≈ 5.56 µM) | 32 (≈ 44.5 µM) | 4 (≈ 5.56 µM) | 4 (≈ 5.56 µM) | 128 (≈ 178 µM) | 32 (≈ 44.5 µM) | 128 (≈ 178 µM) | 32 (≈ 44.5 µM) | – | – | – | – | – |
| NC[C@H]1O[C@H](O[C@H]2[C@H](O)[C@@H](O[C@H]3O[C@H](CO)[C@@H](O)[C@H](N)[C@H]3O)[C@H](N)C[C@@H]2N)[C@H](N)C[C@@H]1O [TOBRAMYCIN] | – | 16 (≈ 34.2 µM) | 64 (≈ 137 µM) | 16 (≈ 34.2 µM) | 128 (≈ 274 µM) | > 128 | 128 (≈ 274 µM) | < 1 | > 128 | 32 (≈ 68.4 µM) | > 128 | > 128 | – | 64 | 128 | – | – |
| CCCCCCCCCCCCCCSC[C@H]1O[C@H](O[C@@H]2[C@@H](O)[C@H](O[C@H]3O[C@H](CN)[C@@H](O)C[C@H]3N)[C@@H](N)C[C@H]2N)[C@H](O)[C@@H](N)[C@@H]1O | 74.4 | 16 (≈ 23.5 µM) | 2 (≈ 2.94 µM) | 8 (≈ 11.8 µM) | 4 (≈ 5.88 µM) | 32 (≈ 47.1 µM) | 2 (≈ 2.94 µM) | 4 (≈ 5.88 µM) | 128 (≈ 188 µM) | 32 (≈ 47.1 µM) | 64 (≈ 94.1 µM) | 16 (≈ 23.5 µM) | – | 4 | 8 | 16 | 23 |
| CCCCCCCCCCCCSC[C@H]1O[C@H](O[C@@H]2[C@@H](O)[C@H](O[C@H]3O[C@H](CN)[C@@H](O)C[C@H]3N)[C@@H](N)C[C@H]2N)[C@H](O)[C@@H](N)[C@@H]1O | – | 32 (≈ 49.1 µM) | 8 (≈ 12.3 µM) | 16 (≈ 24.5 µM) | 8 (≈ 12.3 µM) | 64 (≈ 98.2 µM) | 8 (≈ 12.3 µM) | 8 (≈ 12.3 µM) | 128 (≈ 196 µM) | 64 (≈ 98.2 µM) | 128 (≈ 196 µM) | 64 (≈ 98.2 µM) | 71.6 | 4 | 16 | – | – |
